Values of other authors, collected in patent US6001882A (priority 1997, dated 1999).

Key:
[1] = cited from earlier work
[2] = system: glioma cells; conditions: in vitro; cited from earlier work
[3] = system: protein kinase; conditions: cited from earlier work

For `Cc1cc(O)c2c(=O)c3c(O)cc(O)c4c5c(O)cc(O)c6c(=O)c7c(O)cc(C)c8c1c2c(c34)c(c78)c65` [hypericin, 1,3,4,6,8,13-Hexahydroxy-10,11,dimethyl-phenanthro[1,10,9,8,-opqra]perylene-7,14-dione], the presence in skin ([1]; after systemic administration) is listed as “demonstrated in skin after systemic administration”, the “presence in blood plasma” value ([1]; following administration to mammals) is listed as “remains in the blood plasma” and the half life ([1]; in vivo) is listed as 20 to 24 h. The “effect of light on antiproliferative effects” value [2] was “only slightly enhance hypericin's antiproliferative effects on glioma cells” and the protein kinase inhibition [3] was “inhibits protein kinase activity”.
